Measurements from patent US20240351997A1, “NOVEL PARP7 INHIBITOR AND USE THEREOF” (SHANGHAI QILU PHARMACEUTICAL RESEARCH AND DEVELOPMENT …, priority 2021, published 2024).

Target: PARP7 (Homo sapiens (Human), UniProt Q7Z3E1)
Test: In vitro enzymology experiment of PARP7 (enzymatic inhibition)
Assay type: biochemical
Procedure, shortened: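 Histone-coated plate ADP-ribosylation format: compound preincubated 10 min at room temperature with preincubated (25 °C, 10 min) enzyme mixture; incorporated biotin detected by streptavidin-HRP and QuantaRed fluorescence (Ex550/Em620).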

Chain of PARP7 (Q7Z3E1 whole entry): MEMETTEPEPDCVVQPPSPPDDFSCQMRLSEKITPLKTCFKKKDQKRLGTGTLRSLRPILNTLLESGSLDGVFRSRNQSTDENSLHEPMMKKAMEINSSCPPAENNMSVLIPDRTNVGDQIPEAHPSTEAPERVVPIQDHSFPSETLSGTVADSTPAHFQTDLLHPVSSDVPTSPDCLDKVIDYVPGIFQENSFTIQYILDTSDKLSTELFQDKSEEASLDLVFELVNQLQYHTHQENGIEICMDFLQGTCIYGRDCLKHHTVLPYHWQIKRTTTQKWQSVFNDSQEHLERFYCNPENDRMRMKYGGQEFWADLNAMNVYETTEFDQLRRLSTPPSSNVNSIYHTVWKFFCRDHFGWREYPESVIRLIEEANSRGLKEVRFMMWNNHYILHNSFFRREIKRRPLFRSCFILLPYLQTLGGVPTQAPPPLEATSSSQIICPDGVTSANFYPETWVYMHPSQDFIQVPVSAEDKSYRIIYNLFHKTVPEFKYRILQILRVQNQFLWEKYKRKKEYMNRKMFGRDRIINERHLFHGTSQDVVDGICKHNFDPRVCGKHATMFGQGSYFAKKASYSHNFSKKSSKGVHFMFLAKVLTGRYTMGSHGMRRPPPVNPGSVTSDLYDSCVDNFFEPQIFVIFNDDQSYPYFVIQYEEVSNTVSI

Structure (SMILES)	IC50 [nM]
C[C@@H](Cc1c[nH]c(=O)c(C(F)(F)F)c1)OC(=O)N1CCN(c2ncc(S(C)(=O)=O)cn2)CC1 [Example 101, (S)-1-(6-Oxo-5-(trifluoromethyl)-1,6-dihydropyridin-3-yl)propan-2-yl 4-(5-(methylsulfonyl)pyrimidin-2-yl)piperazine-1-carboxylate]	0.67
CC(Cc1c[nH]c(=O)c2ccccc12)OC(=O)N1CCN(c2ncc(C(F)(F)F)cn2)CC1 (stereo not drawn) [Example 102, 1-(1-Oxo-1,2-dihydroisoquinolin-4-yl)propan-2-yl 4-(5-(trifluoromethyl)pyrimidin-2-yl)piperazine-1-carboxylate]	0.95
Cc1cnc(N2CCN(C(=O)OCCc3c[nH]c(=O)c(C(F)(F)F)c3)CC2)nc1 [Example 105]	0.92
O=C(OCCc1c[nH]c(=O)c(C(F)(F)F)c1)N1CCN(c2ncc(C(F)(F)F)cn2)C[C@@H]1CO [Example 107, 2-(6-Oxo-5-(trifluoromethyl)-1,6-dihydropyridin-3-yl)ethyl (R)-2-(hydroxymethyl)-4-(5-(trifluoromethyl)pyrimidin-2-yl)piperazine-1-carboxylate]	0.72
C[C@H]1CN(c2ncc(C(F)(F)F)cn2)CCN1C(=O)OCCc1c[nH]c(=O)c(C(F)(F)F)c1 [Example 108, 2-(6-Oxo-5-(trifluoromethyl)-1,6-dihydropyridin-3-yl)ethyl (S)-2-methyl-4-(5-(trifluoromethyl)pyrimidin-2-yl)piperazine-1-carboxylate]	0.63
O=C(OCCc1c[nH]c(=O)c(C(F)(F)F)c1)N1CCN(c2ncc(C(F)(F)F)cn2)C[C@H]1CO [Example 110, 2-(6-Oxo-5-(trifluoromethyl)-1,6-dihydropyridin-3-yl)ethyl (S)-2-(hydroxymethyl)-4-(5-(trifluoromethyl)pyrimidin-2-yl)piperazine-1-carboxylate]	0.65
C[C@H]1CN(C(=O)OCCc2c[nH]c(=O)c(C(F)(F)F)c2)CCN1c1ncc(C(F)(F)F)cn1 [Example 113, 2-(6-Oxo-5-(trifluoromethyl)-1,6-dihydropyridin-3-yl)ethyl (S)-3-methyl-4-(5-(trifluoromethyl)pyrimidin-2-yl)piperazine-1-carboxylate]	0.65
CN(CCc1c[nH]c(=O)c(C(F)(F)F)c1)C(=O)N1CCN(c2ncc(C(F)(F)F)cn2)CC1 [Example 115, N-Methyl-N-(2-(6-oxo-5-(trifluoromethyl)-1,6-dihydropyridin-3-yl)ethyl)-4-(5-(trifluoromethyl)pyrimidin-2-yl)piperazine-1-carboxamide]	1
CC[C@@H](Cc1c[nH]c(=O)c(C(F)(F)F)c1)OC(=O)N1CCN(c2ncc(C(F)(F)F)cn2)CC1 [Example 116, (S)-1-(6-Oxo-5-(trifluoromethyl)-1,6-dihydropyridin-3-yl) butan-2-yl 4-(5-(trifluoromethyl)pyrimidin-2-yl)piperazine-1-carboxylate]	0.81
O=C(O[C@@H](CO)Cc1c[nH]c(=O)c(C(F)(F)F)c1)N1CCN(c2ncc(C(F)(F)F)cn2)CC1 [Example 117, (R)-1-Hydroxy-3-(6-oxo-5-(trifluoromethyl)-1,6-dihydropyridin-3-yl)propan-2-yl 4-(5-(trifluoromethyl)pyrimidin-2-yl)piperazine-1-carboxylate]	0.62
O=C(OCCc1c[nH]c(=O)c(C(F)(F)F)c1)N1CCN(c2ncc(C3CCCCC3)cn2)CC1 [Example 118, 2-(6-Oxo-5-(trifluoromethyl)-1,6-dihydropyridin-3-yl)ethyl 4-(5-cyclohexylpyrimidin-2-yl)piperazine-1-carboxylate]	0.93
CC(=O)c1cnc(N2CCN(C(=O)O[C@@H](C)Cc3c[nH]c(=O)c(C(F)(F)F)c3)CC2)nc1 [Example 120, (S)-1-(6-Oxo-5-(trifluoromethyl)-1,6-dihydropyridin-3-yl)propan-2-yl 4-(5-acetylpyrimidin-2-yl)piperazine-1-carboxylate]	0.66
CC[C@@H]1CN(c2ncc(C(F)(F)F)cn2)CCN1C(=O)OCCc1c[nH]c(=O)c(C(F)(F)F)c1 [Example 122, 2-(6-Oxo-5-(trifluoromethyl)-1,6-dihydropyridin-3-yl)ethyl (R)-2-ethyl-4-(5-(trifluoromethyl)pyrimidin-2-yl)piperazine-1-carboxylate]	0.69
CC[C@@H]1CN(C(=O)OCCc2c[nH]c(=O)c(C(F)(F)F)c2)CCN1c1ncc(C(F)(F)F)cn1 [Example 123, 2-(6-Oxo-5-(trifluoromethyl)-1,6-dihydropyridin-3-yl)ethyl (R)-3-ethyl-4-(5-(trifluoromethyl)pyrimidin-2-yl)piperazine-1-carboxylate]	0.87
O=C(OCCc1c[nH]c(=O)c(C(F)(F)F)c1)N1CC2CCC(C1)N2c1ncc(C(F)(F)F)cn1 [Example 125, 2-(6-Oxo-5-(trifluoromethyl)-1,6-dihydropyridin-3-yl)ethyl 8-(5-(trifluoromethyl)pyrimidin-2-yl)-3,8-diazabicyclo[3.2.1]octane-3-carboxylate]	0.71
O=C(OCCc1c[nH]c(=O)c(C(F)(F)F)c1)N1C2CCC1CN(c1ncc(C(F)(F)F)cn1)C2 [Example 126, 2-(6-Oxo-5-(trifluoromethyl)-1,6-dihydropyridin-3-yl)ethyl 3-(5-(trifluoromethyl)pyrimidin-2-yl)-3,8-diazabicyclo[3.2.1]octane-8-carboxylate]	1
N#CC[C@@H]1CN(c2ncc(C(F)(F)F)cn2)CCN1C(=O)OCCc1c[nH]c(=O)c(C(F)(F)F)c1 [Example 128, 2-(6-Oxo-5-(trifluoromethyl)-1,6-dihydropyridin-3-yl)ethyl (R)-2-(cyanomethyl)-4-(5-(trifluoromethyl)pyrimidin-2-yl)piperazine-1-carboxylate]	0.81
O=C(OCCc1c[nH]c(=O)c(C(F)(F)F)c1)N1CCN(c2ncc(C(F)(F)F)cc2F)CC1 [Example 130, 2-(6-Oxo-5-(trifluoromethyl)-1,6-dihydropyridin-3-yl)ethyl 4-(3-fluoro-5-(trifluoromethyl)pyridin-2-yl)piperazine-1-carboxylate]	0.77
Cc1cc(C(F)(F)F)cnc1N1CCN(C(=O)OCCc2c[nH]c(=O)c(C(F)(F)F)c2)CC1 [Example 132, 2-(6-Oxo-5-(trifluoromethyl)-1,6-dihydropyridin-3-yl)ethyl 4-(3-methyl-5-(trifluoromethyl)pyridin-2-yl)piperazine-1-carboxylate]	0.78
Cc1[nH]c(=O)c(C(F)(F)F)cc1C[C@H](C)OC(=O)N1CCN(c2ncc(C(F)(F)F)cn2)CC1 [Example 133, (S)-1-(2-Methyl-6-oxo-5-(trifluoromethyl)-1,6-dihydropyridin-3-yl)propan-2-yl 4-(5-(trifluoromethyl)pyrimidin-2-yl)piperazine-1-carboxylate]	0.76
O=C(Oc1ccccc1-c1c[nH]c(=O)c(C(F)(F)F)c1)N1CCN(c2ncc(C(F)(F)F)cn2)CC1 [Example 134, 2-(6-Oxo-5-(trifluoromethyl)-1,6-dihydropyridin-3-yl)phenyl 4-(5-(trifluoromethyl)pyrimidin-2-yl)piperazine-1-carboxylate]	1.92

The remaining compounds from weak to strong by IC50, led by results:

IC50 [nM]	Structure (SMILES)
0.62	C[C@@H]1CN(C(=O)OCCc2c[nH]c(=O)c(C(F)(F)F)c2)CCN1c1ncc(C(F)(F)F)cn1 [Example 112, 2-(6-Oxo-5-(trifluoromethyl)-1,6-dihydropyridin-3-yl)ethyl (R)-3-methyl-4-(5-(trifluoromethyl)pyrimidin-2-yl)piperazine-1-carboxylate]
0.61	O=C(OCCc1c[nH]c(=O)c(C(F)(F)F)c1)N1CCN(c2ncc(C(F)(F)F)cn2)[C@H](CO)C1 [Example 111, 2-(6-Oxo-5-(trifluoromethyl)-1,6-dihydropyridin-3-yl)ethyl (S)-3-(hydroxymethyl)-4-(5-(trifluoromethyl)pyrimidin-2-yl)piperazine-1-carboxylate]
0.54	CC[C@H]1CN(c2ncc(C(F)(F)F)cn2)CCN1C(=O)OCCc1c[nH]c(=O)c(C(F)(F)F)c1 [Example 121, 2-(6-Oxo-5-(trifluoromethyl)-1,6-dihydropyridin-3-yl)ethyl (S)-2-ethyl-4-(5-(trifluoromethyl)pyrimidin-2-yl)piperazine-1-carboxylate]
0.53	O=C(OCCc1c[nH]c(=O)c(C(F)(F)F)c1)N1CCN(c2ncc(C(F)(F)F)cn2)[C@@H](CO)C1 [Example 104, 2-(6-Oxo-5-(trifluoromethyl)-1,6-dihydropyridin-3-yl)ethyl (R)-3-(hydroxymethyl)-4-(5-(trifluoromethyl)pyrimidin-2-yl)piperazine-1-carboxylate]
0.53	CC(C)(O)c1cnc(N2CCN(C(=O)OCCc3c[nH]c(=O)c(C(F)(F)F)c3)CC2)nc1 [Example 114, 2-(6-Oxo-5-(trifluoromethyl)-1,6-dihydropyridin-3-yl)ethyl 4-(5-(2-hydroxypropan-2-yl)pyrimidin-2-yl)piperazine-1-carboxylate]
0.49	O=C(OCCc1c[nH]c(=O)c(C(F)(F)F)c1)N1CCN(c2cnc(C(F)(F)F)cn2)CC1 [Example 127, 2-(6-Oxo-5-(trifluoromethyl)-1,6-dihydropyridin-3-yl)ethyl 4-(5-(trifluoromethyl)pyrazin-2-yl)piperazine-1-carboxylate]
0.48	CC[C@H]1CN(C(=O)OCCc2c[nH]c(=O)c(C(F)(F)F)c2)CCN1c1ncc(C(F)(F)F)cn1 [Example 124, 2-(6-Oxo-5-(trifluoromethyl)-1,6-dihydropyridin-3-yl)ethyl (S)-3-ethyl-4-(5-(trifluoromethyl)pyrimidin-2-yl)piperazine-1-carboxylate]
0.46	O=C(OCCc1c[nH]c(=O)c(C(F)(F)F)c1)N1CCN(c2ccc(C(F)(F)F)cn2)CC1 [Example 106, 2-(6-Oxo-5-(trifluoromethyl)-1,6-dihydropyridin-3-yl)ethyl 4-(5-(trifluoromethyl)pyridin-2-yl)piperazine-1-carboxylate]
0.24	O=C(OCCc1c[nH]c(=O)c(C(F)(F)F)c1)N1CCN(c2ncc(C3CCCC3)cn2)CC1 [Example 119, 2-(6-Oxo-5-(trifluoromethyl)-1,6-dihydropyridin-3-yl)ethyl 4-(5-cyclopentylpyrimidin-2-yl)piperazine-1-carboxylate]
